A short description of the data set: Human HepG2 cell viability assay in 384 well format. The format is toxicity, cell-based. More on the design: dose 125 nL, time 70.5 hour; cytotoxicity at 70.5 h: concentration not given beside the values. The conditions noted are these: HepG2 cells, read-out: Inhibition.
Consider `Cc1nc(CN2CCOC(c3ccc(Cl)cc3)C2)oc1C` (centres undefined), for which the cytotoxicity at 70.5 h was -7.95%.

As for `Cc1nc(CN2CCCC2Cn2ccnc2C(C)C)nc2ccccc12` (centres undefined), the cytotoxicity at 70.5 h worked out at 19.9%.

In the case of `Cc1cc(C2CCCN(Cc3cccnc3)C2)n[nH]1` (centres undefined), the cytotoxicity at 70.5 h is 47.5%.

For `CS(=O)(=O)NC1CCN(Cc2coc(-c3ccc(Cl)cc3)n2)CC1`, the cytotoxicity at 70.5 h stood at 7.7%.

Turning to `CN(Cc1ccsc1)C(=O)c1nc(N2CCCC2)ncc1Cl`, the cytotoxicity at 70.5 h was -6.35%.

In the case of `O=C(c1nc(N2CCCC2)ncc1Cl)N1CCN(Cc2ccsc2)CC1`, the cytotoxicity at 70.5 h worked out at 29%.

As to `CC(C)CN1CCC(NC(=O)N(C)Cc2csc3ccccc23)CC1`, the cytotoxicity at 70.5 h was -3.08%.

As for `Cc1cc(C)n(C2CN(c3nc(-c4ccncc4)nc4c3CCC4)C2)n1`, the cytotoxicity at 70.5 h was -8.99%.

For `O=C(Nc1ccccc1F)NC1(CO)CCOCC1`, the cytotoxicity at 70.5 h was -12.1%.

Turning to `CNC(=O)Cc1ccccc1NC(=O)N[C@H]1c2ccccc2C[C@H]1O`, the cytotoxicity at 70.5 h was -13.7%.

In the case of `CC(C)Oc1ccccc1CNC(=O)N(C)C(C)CS(C)(=O)=O` (centres undefined), the cytotoxicity at 70.5 h is 16.1%.

Take `N#Cc1ccc(NCc2cccnc2N2CCC(C(N)=O)CC2)cn1`: the cytotoxicity at 70.5 h is -7.33%.

On to `COc1ccccc1CCNC(=O)N(C)C(C)CS(C)(=O)=O` (centres undefined), for which the cytotoxicity at 70.5 h was 24.3%.

As to `CN(C)C(=O)c1ccccc1NC(=O)N[C@@H]1c2ccccc2C[C@@H]1O`, the cytotoxicity at 70.5 h worked out at 0.722%.

For `O=C(c1cc(C2CC2)nc2onc(-c3ccccc3)c12)N1CC[C@H](O)C1`, the cytotoxicity at 70.5 h is -4.91%.

As for `O=C(c1cc(C2CC2)nc2onc(-c3ccccc3)c12)N1CC(O)C1`, the cytotoxicity at 70.5 h turned out to be 16.9%.

For the molecule `CC(C)(C)OC(=O)N[C@H]1CCN(c2cncc(Br)c2)C1`, the cytotoxicity at 70.5 h is 23.7%.

On to `Cc1c(Br)cccc1CSc1nnc(CO)n1C`, for which the cytotoxicity at 70.5 h turned out to be 14%.

`COC(=O)C(NC(=O)c1cc(C)ccc1C)c1cccnc1` (centres undefined): the cytotoxicity at 70.5 h was -0.114%.

As to `COC(=O)C(NC(=O)c1cc(F)cc(F)c1)c1cccnc1` (centres undefined), the cytotoxicity at 70.5 h was -8.87%.

Regarding `CCC(C)C(=O)N(Cc1ccccn1)C1CC1` (centres undefined), the cytotoxicity at 70.5 h was found to be 25.9%.

On to `O=C(C1CCCN(c2nc3ccccc3cc2CO)C1)N1CCCC1` (centres undefined), for which the cytotoxicity at 70.5 h was determined as 20.7%.

On to `Cc1ccc(CNC(CCO)C2CCCCC2)nc1` (centres undefined), for which the cytotoxicity at 70.5 h is -1.61%.

Turning to `Cc1ncccc1CNC(CCO)C1CCCCC1` (centres undefined), the cytotoxicity at 70.5 h turned out to be 1.16%.

In the case of `O=C(CNC1(CCO)CCOCC1)Nc1ccc(F)cc1F`, the cytotoxicity at 70.5 h amounted to 10.9%.

As to `Cc1nc(CN2CCCCC2Cn2cccn2)nc2ccccc12` (centres undefined), the cytotoxicity at 70.5 h is -5.42%.

Consider `Cn1nc(C(=O)NCCc2ccc(OC3CCCC3)cc2)ccc1=O`, for which the cytotoxicity at 70.5 h amounted to 12.1%.

As to `COc1ccc(COCC(=O)N2CCC(c3nncn3C)CC2)cc1`, the cytotoxicity at 70.5 h is -12.3%.

As for `CCc1nnc2n1CCN(C(=O)CCc1ccc(C)c(Cl)c1)C2`, the cytotoxicity at 70.5 h is -1.97%.

Turning to `N#Cc1ccc(N2CCC(OCCc3ccccc3)CC2)nc1`, the cytotoxicity at 70.5 h is -13.8%.

In the case of `COC(=O)COc1nc(C(C)C)no1`, the cytotoxicity at 70.5 h was -10.1%.

With `CN(C1CCN(C(=O)NCCc2ccc(F)cc2F)CC1)S(C)(=O)=O`, the cytotoxicity at 70.5 h was -5.3%.

Regarding `COc1ccc(C(=O)CCC(=O)NCc2c(C)noc2C)cc1F`, the cytotoxicity at 70.5 h turned out to be 23.7%.

Turning to `COc1ccc(CNCC2CN(C3CC3)CCO2)cc1OC` (centres undefined), the cytotoxicity at 70.5 h is -7.17%.

Turning to `Cn1cnnc1C1CCN(C(=O)COCc2ccccc2Cl)CC1`, the cytotoxicity at 70.5 h was -11.8%.

Consider `CCc1n[nH]c(C2CN(C(=O)CCOCC(F)(F)F)CCO2)n1` (centres undefined), for which the cytotoxicity at 70.5 h was -12.9%.

As to `O=C(CN1CC(n2cccn2)C1)NCC1(c2ccccc2)CCC1`, the cytotoxicity at 70.5 h worked out at 13.6%.

With `c1ncn(CCNC2CCCN(Cc3noc(C4CC4)n3)C2)n1` (centres undefined), the cytotoxicity at 70.5 h was -11.2%.

As for `CC(NC(=O)Nc1ccncc1)c1ccc2c(c1)CC(=O)N2` (centres undefined), the cytotoxicity at 70.5 h is -7.01%.

`O=C(NCCCN1CCN(c2ncccn2)CC1)Nc1ccccn1`: the cytotoxicity at 70.5 h was -2.48%.

On to `NC(=O)CC1CCN(C(=O)c2cnc(-c3ccccc3F)s2)CC1`, for which the cytotoxicity at 70.5 h was -22.8%.

In the case of `Cc1cc(N2CCc3c(nc(C(C)C)n3C)C2)nc(N)n1`, the cytotoxicity at 70.5 h was -10.6%.

Regarding `N#CCCN(Cc1cccnc1)C(=O)c1ccc(OCC2CC2)cc1`, the cytotoxicity at 70.5 h is -4.18%.

For `OC(CN1CCN(CC(F)F)CC1)c1ccc(Br)cc1` (centres undefined), the cytotoxicity at 70.5 h was determined as 1.14%.

As to `OC(CN1CCN(CC2CCCCC2)CC1)c1ccccc1` (centres undefined), the cytotoxicity at 70.5 h was -8.48%.

Turning to `COc1cccc(NC(=O)NC(C)c2ccc3c(c2)CC(=O)N3)c1` (centres undefined), the cytotoxicity at 70.5 h is -3.09%.

In the case of `Cn1ccnc1CNC(=O)Nc1ccc(OC2CCC2)c(F)c1`, the cytotoxicity at 70.5 h is 20%.

As for `O=C(Cc1ccon1)NC1CC2(CCC2)Oc2ccccc21` (centres undefined), the cytotoxicity at 70.5 h amounted to 4.31%.

Take `CC(=O)NCCCOc1c(C)cccc1Cl`: the cytotoxicity at 70.5 h is -2.28%.

Take `CC(=O)NCCOc1c(C)cccc1C`: the cytotoxicity at 70.5 h is -4.39%.

On to `O=C(CN1CCN(CCO)CC1)NCCc1c(F)cccc1F`, for which the cytotoxicity at 70.5 h is -1.38%.

As to `Cc1cccc(CCC(=O)NCC2CCCN2c2cccnn2)c1` (centres undefined), the cytotoxicity at 70.5 h was found to be 5.29%.

Consider `O=C(CNCC1CCCN1c1cccnn1)NCCc1cccs1` (centres undefined), for which the cytotoxicity at 70.5 h is -1.9%.

On to `Cc1ccccc1CN1CCCN(CCN2CCOC2=O)CC1`, for which the cytotoxicity at 70.5 h was -1.61%.

For the molecule `CN(CCCNC(=O)CN1CCS(=O)(=O)CC1)c1ccccc1`, the cytotoxicity at 70.5 h is -6.59%.

Regarding `CCC(C)NC(=O)c1ccc(CNC(=O)CCC(C)C)cc1` (centres undefined), the cytotoxicity at 70.5 h was 15.4%.

With `CC1CCCCN1Cc1nc(C2CC2)no1` (centres undefined), the cytotoxicity at 70.5 h was -4.41%.

Turning to `CN(Cc1ccccc1OC(F)(F)F)C(=O)C1CCCN(C(N)=O)C1` (centres undefined), the cytotoxicity at 70.5 h is -6.37%.

`COCCN(C)C(=O)Nc1ccc(C(=O)NCCC(=O)OC)cc1`: the cytotoxicity at 70.5 h was -8.51%.

`CCCN(C)C(=O)Nc1ccc(C(=O)NCCC(=O)OC)cc1`: the cytotoxicity at 70.5 h is -6.01%.

Take `COC(=O)C1CN(CC(=O)Nc2cc(F)ccc2F)c2ccccc21` (centres undefined): the cytotoxicity at 70.5 h was -7.21%.

Consider `COC(=O)C1CN(CC(=O)Nc2ccccc2Cl)c2ccccc21` (centres undefined), for which the cytotoxicity at 70.5 h is -5.02%.

Regarding `O=C(NCc1cccc(N2CC=CC2)c1)NCC(F)(F)F`, the cytotoxicity at 70.5 h was -2.26%.

As to `O=C(NCc1cccc(N2CC=CC2)c1)NC1CC1`, the cytotoxicity at 70.5 h is -2.22%.

`CC(C)(C)OC(=O)NCC1CCN(C(=O)c2ccc(F)cc2F)C1` (centres undefined): the cytotoxicity at 70.5 h was -4.74%.

Regarding `CC(C)(C)OC(=O)NCC1CCN(C(=O)c2ccccc2O)C1` (centres undefined), the cytotoxicity at 70.5 h is -0.832%.

Turning to `Cc1cnc(CNC(=O)NCCOc2ncccc2Cl)s1`, the cytotoxicity at 70.5 h is -3.34%.

For the molecule `CC(C)c1cc(CNC(=O)NCc2cccc(N3CC=CC3)c2)on1`, the cytotoxicity at 70.5 h is -3.2%.

Turning to `Cc1cnc(CCNC(=O)NCCOc2ncccc2Cl)s1`, the cytotoxicity at 70.5 h was -2.69%.

For `Cc1cnc(NC(=O)NCCOc2ncccc2Cl)s1`, the cytotoxicity at 70.5 h was -4.99%.

For the molecule `CN(C)c1ncc(NC(=O)N2CCC(CN3CCCC3)C2)cn1` (centres undefined), the cytotoxicity at 70.5 h is 0.1%.

For the molecule `CCC(C)(NCC(=O)NC(=O)NC)c1nccs1` (centres undefined), the cytotoxicity at 70.5 h is -4.72%.

For the molecule `Cc1ccccc1-n1cnnc1SCCOCC1CCCO1` (centres undefined), the cytotoxicity at 70.5 h is -5%.

Regarding `COC(=O)N1CCC(Nc2cccc(F)c2C(C)=O)CC1`, the cytotoxicity at 70.5 h is -10.1%.

Consider `CC(C)(C)S(=O)(=O)CCNC1CSCCc2ccccc21` (centres undefined), for which the cytotoxicity at 70.5 h was 27.7%.

For the molecule `CCN(CC(F)(F)F)C(=O)C1CCCN(Cc2cscn2)C1` (centres undefined), the cytotoxicity at 70.5 h turned out to be 26.1%.

Turning to `Oc1ccc2oc3c(c2c1CN1CCOCC1)CCCC3`, the cytotoxicity at 70.5 h is -8.06%.

In the case of `CNC(=O)c1cccc(NC(=O)NCc2ccccc2)c1C`, the cytotoxicity at 70.5 h is -10.1%.

Consider `CS(=O)(=O)N1CCN(Cc2c(O)ccc3oc4c(c23)CCCC4)CC1`, for which the cytotoxicity at 70.5 h is -10.3%.

Regarding `Cc1nn(C)c(N2CCOCC2)c1CNCC1CCN(C2CC2)C1` (centres undefined), the cytotoxicity at 70.5 h was found to be 15.8%.

Consider `CC(=O)NCC1CN(c2ccc3c(Cl)ccnc3c2F)CCO1` (centres undefined), for which the cytotoxicity at 70.5 h is -7.29%.

As for `COc1ccc2cccc(CC(=O)NCCc3n[nH]c(=O)[nH]3)c2c1`, the cytotoxicity at 70.5 h is -8.41%.

Consider `COc1ccc2cccc(CC(=O)NCCCc3n[nH]c(C)n3)c2c1`, for which the cytotoxicity at 70.5 h is 4.93%.

In the case of `O=S(=O)(NCCN1CC=CC1)c1cncc(Cl)c1`, the cytotoxicity at 70.5 h is -0.531%.

Take `O[C@@H]1CCN(c2ccc3c(Cl)ccnc3c2F)C1`: the cytotoxicity at 70.5 h was -8.44%.

On to `Cn1ccnc1CCNC(=O)NCCC1CCCCO1` (centres undefined), for which the cytotoxicity at 70.5 h was -2.69%.

On to `CC(C)c1nnc(NCc2ccsc2)o1`, for which the cytotoxicity at 70.5 h turned out to be 3.33%.

For `Cn1ccnc1SCC(=O)NCCC1CCCO1` (centres undefined), the cytotoxicity at 70.5 h stood at 31.2%.

As to `CCOc1cc(C)nc(N2CCN(C(C)c3nc(C)no3)CC2)n1` (centres undefined), the cytotoxicity at 70.5 h is -1.64%.

Take `COCC1CN(c2ccc3c(Cl)ccnc3c2F)CCO1` (centres undefined): the cytotoxicity at 70.5 h came out at 20.2%.

In the case of `CCc1nc(CNC2CCCc3c2cnn3CC)cs1` (centres undefined), the cytotoxicity at 70.5 h came to 6.14%.

In the case of `CS(=O)(=O)NCCCNc1ccc(C(F)(F)F)cc1C#N`, the cytotoxicity at 70.5 h was -3.55%.

Turning to `Cc1ncc2c(n1)CCN(C(C(N)=O)c1ccccc1)C2` (centres undefined), the cytotoxicity at 70.5 h is -2.66%.

As for `CCOC(=O)c1nc(CN2CCN(C(=O)NC3CCCCC3)CC2)cs1`, the cytotoxicity at 70.5 h was -7.73%.

In the case of `O=C(c1c[nH]c2ncccc12)N(Cc1ccco1)C1CCCC1`, the cytotoxicity at 70.5 h is -3.94%.

Turning to `CCc1ncc2c(n1)CN(C(C(N)=O)c1ccccc1)CC2` (centres undefined), the cytotoxicity at 70.5 h is -3.45%.

As to `N#Cc1cnc2ccccc2c1N1CCNCC1`, the cytotoxicity at 70.5 h was -1.59%.

`CC(C)Cn1cnnc1C1CCCN1C(=O)OC(C)(C)C` (centres undefined): the cytotoxicity at 70.5 h was -0.156%.

As to `CCN(C(=O)CNc1cc(C)c(F)cc1C(N)=O)C1CC1`, the cytotoxicity at 70.5 h came to 0.591%.

For `Cc1cc(NCC(=O)N(C)C(C)c2cccs2)c(C(N)=O)cc1F` (centres undefined), the cytotoxicity at 70.5 h is 1.44%.

Regarding `CCNC(=O)NC1CCCN(c2ccc(C)cc2)C1=O` (centres undefined), the cytotoxicity at 70.5 h amounted to 0.44%.

Turning to `COc1cc(CNCC2CN(C3CC3)CCO2)cc(OC)c1` (centres undefined), the cytotoxicity at 70.5 h is -2.94%.

With `CC(C)c1cc(=O)[nH]c(C(C)(C)N)n1`, the cytotoxicity at 70.5 h was -3.05%.

Regarding `N#Cc1cnc2ccccc2c1N1CCN(CCC(=O)O)CC1`, the cytotoxicity at 70.5 h is 1.24%.
